Reference: PMC11645656, “MRGPRX4 mediates phospho-drug associated pruritus in a humanized mouse model” (Science translational medicine, 2024)
“And” between values parts separate entries of the source, which are not always exact repeats. Equal entries are not always repeated.

How the values were obtained:
NP2-WT mice = experiment: Itch behavioral study (scratching bouts after subcutaneous nape injection) in littermate control NP2-WT mice; type: in vivo; conditions: 30 min after injection of 50 μl 10 mM into the nape, each cell one mouse
Source text: Fig. 2. Phosphate monoester prodrugs induce itch in NP2-MRGPRX4+ mice through activating NP2 primary sensory neurons. (A) Mating strategy to generate NP2-X4+ mice. (B) In situ hybridization showing MRGPRX4 transcripts (magenta) in NP2-X4+ DRG as indicated by arrowheads (left) but not in littermate control NP2-WT (right). NP2 subpopulation accounts for 5% of total DRG neurons. DAPI, blue. Scale bar, 50 μm. […] . Data are expressed as mean ± SEM. *p< 0.05, **p< 0.01 and ***p< 0.001 by two-tailed unpaired Student’s t-test. ns = no statistical significance observed. (D and E) Traces of average (top, depicted as mean ± 95% confidence interval) and individual (bottom, reflected by the heatmap) calcium activity, measured by fluorescence intensity normalized to the baseline intensity (FT/F0) over time of NP2-X4+ (D) and NP2-WT (E) DRG neurons labelled with GCaMP6s (n = 110–150 neurons pooled from 3–7 independent culture vessels from 2–4 mice in each condition). 10 μM phospho-drugs and 1 mM CQ were added as indicated by the arrowheads. Neurons with FT/F0 > 1.5 after compound application were considered a positive responder. NP2-X4+: NP2-MRGPRX4+; DRG, dorsal root ganglia; CQ: chloroquine.
. All the animals used were heterozygous unless otherwise specified. NP2-X4+ and NP2-WT littermates were generated by crossing Mrgpra3-Cre to Rosa26-lsl-MRGPRX4 as detailed previously ([15]). NP2-X4+ mice were further crossed to homozygous Rosa26-lsl-GCaMP6s to obtain NP2-WT/GCaMP6s and NP2-X4+/GCaMP6s animals. A detailed mating strategy is illustrated in fig. S5. Pirt-Cre-GCaMP6s animals were acquired by crossing Pirt-Cre to homozygous Rosa26-lsl-GCaMP6s. Pirt-Cre animals were generated through homologous recombination as indicated previously ([37]). Rosa26-lsl-GCaMP6s mouse line was provided by Dr. Dwight Bergles’ lab at the Johns Hopkins School of Medicine.

[1] = system: NP2-X4+ mice (MRGPRX4 in Mrgpra3+ NP2 sensory neurons); experiment: Itch behavioral study (scratching bouts after subcutaneous nape injection) in NP2-X4+ mice; type: in vivo, mouse
MRGPRX4 (S83) = target: T1, MRGPRX4 (S83) (Homo sapiens, UniProt Q96LA9, L83S); experiment: EC50 determination, intracellular calcium mobilization in MRGPRX4 stably expressed HEK293 cells (FLIPR Calcium 5, Flexstation-3); type: cell-based; design: Fig. 1D dose-response, calcium mobilization response (individual replicate) / calcium mobilization response (Fig. 1D dose-response raw data): unit not given here
T1 construct: expressed in transfected cells
Method in brief: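 HEK293 cells stably expressing receptor (parental HEK293 alongside) loaded with Calcium 5 dye in HBSS/20 mM HEPES, pH 7.4, 1 h at 37 °C, then compounds added. Response = peak minus pre-drug baseline, triplicates averaged; EC50 from 4PL fit.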

T1 sequence (Q96LA9 whole entry L83S): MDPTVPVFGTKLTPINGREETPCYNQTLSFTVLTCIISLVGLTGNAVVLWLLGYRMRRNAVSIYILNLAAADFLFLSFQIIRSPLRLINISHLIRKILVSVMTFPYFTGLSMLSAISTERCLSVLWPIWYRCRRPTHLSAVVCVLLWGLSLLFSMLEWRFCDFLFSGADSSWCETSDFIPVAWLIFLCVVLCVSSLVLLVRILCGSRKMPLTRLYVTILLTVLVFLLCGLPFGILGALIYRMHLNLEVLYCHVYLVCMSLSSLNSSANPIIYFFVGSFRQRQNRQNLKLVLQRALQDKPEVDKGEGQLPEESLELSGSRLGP

## CC(=O)OCC(=O)[C@@]1(O)[C@H](C)C[C@H]2[C@@H]3CCC4=CC(=O)C=C[C@]4(C)[C@@]3(F)[C@@H](O)C[C@@]21C [Dexamethasone acetate]
NP2-WT mice
  Scratching bouts of individual animals: 20 and 31 and 30 and 18 and 14 and 9 and 75 and 34 and 3
[1]; 50 μl 10 mM nape injection
  Itch in both NP2-X4+ and littermate WT controls: slightly elevated itch
[1]; 50 μl 10 mM nape injection, 30 min
  Scratching / itch behavior, NP2-X4+ mice vs WT littermates: no differences in itch behavior were detected
[1]; NP2-X4+, 30 min after injection of 50 μl 10 mM into the nape, each cell one mouse
  Scratching bouts of individual animals: 0 and 26 and 59 and 22 and 2 and 3 and 9 (2×) and 20
MRGPRX4 (S83); Concentration 9.76563e-7 M
  Fig. 1D dose-response, calcium mobilization response (individual replicate): -48.502 and -46.356 and -48.988 and -43.676 and -48.158 and -43.385 and -85.123 and -4.652 and -42.229
MRGPRX4 (S83); Concentration 1.95313e-6 M
  Fig. 1D dose-response, calcium mobilization response (individual replicate): -22.164 and -36.691 and -35.570 and -37.729 and -34.474 and -34.794 and -19.078 and -53.999 and -20.889
MRGPRX4 (S83); Concentration 3.90625e-6 M
  Fig. 1D dose-response, calcium mobilization response (individual replicate): -39.055 and -53.135 and -70.767 and -48.544 and -36.360 and -36.045 and -91.099 and -38.430 and -1.751
MRGPRX4 (S83); Concentration 7.8125e-6 M
  Fig. 1D dose-response, calcium mobilization response (individual replicate): -33.331 and -71.560 and -49.660 and -45.756 and -42.005 and -31.885 and -29.162 and -70.876 and -31.653
MRGPRX4 (S83); Concentration 1.5625e-5 M
  Fig. 1D dose-response, calcium mobilization response (individual replicate): -37.387 and -60.340 and -52.439 and -33.449 and -38.008 and -34.728 and -69.819 and -42.708 and -12.221
MRGPRX4 (S83); Concentration 3.125e-5 M
  Fig. 1D dose-response, calcium mobilization response (individual replicate): -47.434 and -56.549 and -63.778 and -43.258 and -41.889 and -38.256 and -62.786 and -46.904 and -33.452
MRGPRX4 (S83); Concentration 6.25e-5 M
  Fig. 1D dose-response, calcium mobilization response (individual replicate): -61.858 and -50.883 and -76.723 and -47.363 and -44.877 and -37.522 and -10.190 and -37.194 and -110.631
MRGPRX4 (S83); Concentration 0.00025 M
  Fig. 1D dose-response, calcium mobilization response (individual replicate): -64.043 and -50.303 and -56.027 and -44.560 and -42.575 and -45.473 and -89.145 and -53.447 and -8.636
MRGPRX4 (S83); Concentration 0.0005 M
  Fig. 1D dose-response, calcium mobilization response (individual replicate): -48.359 and -6.029 and -35.851 and -38.822 and -45.234 and -19.021 and -30.402 and -28.831 and -36.978
MRGPRX4 (S83); Concentration 0.001 M
  Fig. 1D dose-response, calcium mobilization response (individual replicate): -37.786 and -38.347 and -50.572 and -37.033 and -22.575 and -15.877 and -9.453 and -18.673 and -62.758
